Assay results as given in patent US8410112B2, “Compounds useful as inhibitors of ATR kinase” (Vertex Pharmaceuticals Incorporated, priority 2008, dated 2013).

The molecules below were run against T1, full-length ATR (Homo sapiens, UniProt Q13535) (assay: ATR Inhibition Assay (radioactive-phosphate incorporation)). Settings: Ki(app); 5 nM full-length ATR, 10 μM ATP, 800 μM target peptide, 25° C.
T1 construct: in the presence of 5 nM full-length ATR
Type: biochemical
In short: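 After a 10-min pre-incubation of compound with 5 nM enzyme at 25 °C, ATP was added to start the reaction (final 10 μM [γ-33P]ATP, 800 μM peptide; Tris/HCl pH 7.5, MgCl2, DTT), which ran 24 h. Incorporated 33P was captured on phosphocellulose filters, and Ki(app) was fitted by non-linear regression.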

T1 sequence (Q13535 whole entry): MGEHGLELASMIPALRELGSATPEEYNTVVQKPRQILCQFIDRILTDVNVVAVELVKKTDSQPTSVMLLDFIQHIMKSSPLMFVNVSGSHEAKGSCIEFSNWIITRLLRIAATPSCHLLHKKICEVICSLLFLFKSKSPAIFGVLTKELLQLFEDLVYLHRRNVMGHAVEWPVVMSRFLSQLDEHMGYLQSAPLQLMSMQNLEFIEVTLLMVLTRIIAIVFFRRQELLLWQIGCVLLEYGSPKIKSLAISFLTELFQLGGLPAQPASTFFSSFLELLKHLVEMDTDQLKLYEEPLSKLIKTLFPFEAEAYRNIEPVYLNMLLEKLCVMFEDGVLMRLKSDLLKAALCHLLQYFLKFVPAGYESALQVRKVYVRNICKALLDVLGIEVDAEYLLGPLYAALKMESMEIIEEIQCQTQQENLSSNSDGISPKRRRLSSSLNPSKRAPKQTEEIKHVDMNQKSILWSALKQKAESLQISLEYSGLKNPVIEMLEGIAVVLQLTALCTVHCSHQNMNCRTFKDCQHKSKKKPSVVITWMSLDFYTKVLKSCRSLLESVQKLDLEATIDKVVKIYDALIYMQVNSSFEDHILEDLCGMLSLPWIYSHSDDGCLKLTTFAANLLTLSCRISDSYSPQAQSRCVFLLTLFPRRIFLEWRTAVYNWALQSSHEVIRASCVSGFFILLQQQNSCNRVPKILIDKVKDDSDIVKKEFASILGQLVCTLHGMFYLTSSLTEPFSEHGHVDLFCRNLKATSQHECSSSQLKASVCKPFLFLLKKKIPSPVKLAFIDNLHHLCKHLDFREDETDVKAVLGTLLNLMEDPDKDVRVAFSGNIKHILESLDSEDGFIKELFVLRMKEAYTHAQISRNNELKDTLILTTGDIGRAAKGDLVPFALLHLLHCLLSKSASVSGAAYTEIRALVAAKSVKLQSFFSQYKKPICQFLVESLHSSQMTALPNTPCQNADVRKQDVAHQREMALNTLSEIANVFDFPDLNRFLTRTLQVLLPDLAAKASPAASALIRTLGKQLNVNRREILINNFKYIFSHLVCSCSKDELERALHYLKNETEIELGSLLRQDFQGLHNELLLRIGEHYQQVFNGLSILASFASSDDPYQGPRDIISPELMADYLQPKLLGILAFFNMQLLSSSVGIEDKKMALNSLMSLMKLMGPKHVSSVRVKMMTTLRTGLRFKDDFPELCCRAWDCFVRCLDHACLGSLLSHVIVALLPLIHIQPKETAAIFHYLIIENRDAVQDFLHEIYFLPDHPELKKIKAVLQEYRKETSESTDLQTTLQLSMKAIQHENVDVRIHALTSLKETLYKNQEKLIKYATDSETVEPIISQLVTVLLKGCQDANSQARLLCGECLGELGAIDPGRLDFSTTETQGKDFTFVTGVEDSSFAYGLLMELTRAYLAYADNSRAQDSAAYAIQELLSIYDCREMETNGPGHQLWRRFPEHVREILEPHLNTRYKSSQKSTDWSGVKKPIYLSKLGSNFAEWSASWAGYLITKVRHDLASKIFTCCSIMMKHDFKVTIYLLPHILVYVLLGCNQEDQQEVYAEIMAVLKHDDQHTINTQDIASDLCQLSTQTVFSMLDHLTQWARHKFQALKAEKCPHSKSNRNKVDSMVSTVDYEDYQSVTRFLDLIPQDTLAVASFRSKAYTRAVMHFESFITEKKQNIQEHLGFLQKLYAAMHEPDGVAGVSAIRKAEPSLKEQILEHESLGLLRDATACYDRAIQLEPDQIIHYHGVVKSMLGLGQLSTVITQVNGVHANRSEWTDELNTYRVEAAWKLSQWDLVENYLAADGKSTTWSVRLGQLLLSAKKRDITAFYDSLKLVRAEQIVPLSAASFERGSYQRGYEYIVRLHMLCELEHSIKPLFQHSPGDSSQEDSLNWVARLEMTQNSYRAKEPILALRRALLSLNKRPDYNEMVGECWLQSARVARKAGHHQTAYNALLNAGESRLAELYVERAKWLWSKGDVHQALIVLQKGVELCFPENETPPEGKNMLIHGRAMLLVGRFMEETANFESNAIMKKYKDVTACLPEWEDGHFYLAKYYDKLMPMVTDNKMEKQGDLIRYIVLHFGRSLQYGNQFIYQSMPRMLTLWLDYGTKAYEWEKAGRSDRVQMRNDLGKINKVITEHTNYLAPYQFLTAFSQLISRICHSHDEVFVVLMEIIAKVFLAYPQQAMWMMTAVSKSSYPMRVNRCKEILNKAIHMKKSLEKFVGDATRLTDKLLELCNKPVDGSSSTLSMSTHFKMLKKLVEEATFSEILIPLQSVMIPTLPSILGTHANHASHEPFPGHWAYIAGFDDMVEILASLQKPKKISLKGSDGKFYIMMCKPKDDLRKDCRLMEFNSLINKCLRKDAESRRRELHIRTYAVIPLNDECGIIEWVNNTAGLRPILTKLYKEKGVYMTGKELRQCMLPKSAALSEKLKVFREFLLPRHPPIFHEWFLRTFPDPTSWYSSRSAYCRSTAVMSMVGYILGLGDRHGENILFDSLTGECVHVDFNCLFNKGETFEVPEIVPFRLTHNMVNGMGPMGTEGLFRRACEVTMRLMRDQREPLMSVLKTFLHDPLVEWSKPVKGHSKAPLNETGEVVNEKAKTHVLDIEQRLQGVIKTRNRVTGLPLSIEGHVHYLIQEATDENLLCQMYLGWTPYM

Row | SMILES | Ki
1 | Nc1ncc(N2CCN(C(=O)N3CCCCC3)CC2)nc1-c1nnc(-c2ccccc2)o1 [Compound I-231, (4-(5-amino-6-(5-phenyl-1,3,4-oxadiazol-2-yl)pyrazin-2-yl)piperazin-1-yl)(piperidin-1-yl)methanone] | 100 to 1000 nM
2 | CCOC(=O)N1CCN(c2cnc(N)c(-c3nnc(-c4ccccc4)o3)n2)CC1 [Compound I-232, ethyl 4-(5-amino-6-(5-phenyl-1,3,4-oxadiazol-2-yl)pyrazin-2-yl)piperazine-1-carboxylate] | 100 to 1000 nM
3 | Nc1ncc(N2CCN(S(=O)(=O)c3cccnc3)CC2)nc1C(=O)Nc1ccccn1 [Compound I-233, 3-amino-N-(pyridin-2-yl)-6-(4-(pyridin-3-ylsulfonyl)piperazin-1-yl)pyrazine-2-carboxamide] | 100 to 1000 nM
4 | CN(C)C(=O)N1CC=C(c2cnc(N)c(-c3nc4ccccc4[nH]3)n2)CC1 [Compound I-234, 4-(5-amino-6-(1H-benzo[d]imidazol-2-yl)pyrazin-2-yl)-N,N-dimethyl-5,6-dihydropyridine-1(2H)-carboxamide] | 100 to 1000 nM
5 | Nc1ncc(C2=CCN(C(=O)C3CCOCC3)CC2)nc1-c1nc2ccccc2[nH]1 [Compound I-235, (4-(5-amino-6-(1H-benzo[d]imidazol-2-yl)pyrazin-2-yl)-5,6-dihydropyridin-1(2H)-yl)(tetrahydro-2H-pyran-4-yl)methanone] | 100 to 1000 nM
6 | Nc1ncc(C2=CCN(C(=O)N3CCCCC3)CC2)nc1-c1nnc(-c2ccccc2)o1 [Compound I-236, (4-(5-amino-6-(5-phenyl-1,3,4-oxadiazol-2-yl)pyrazin-2-yl)-5,6-dihydropyridin-1(2H)-yl)(piperidin-1-yl)methanone] | < 100 nM
7 | COCCOC(=O)N1CCN(c2cnc(N)c(C(=O)Nc3ccccn3)n2)CC1 [Compound I-237, 2-methoxyethyl 4-(5-amino-6-(pyridin-2-ylcarbamoyl)pyrazin-2-yl)piperazine-1-carboxylate] | 1000 to 10000 nM
8 | CCOC(=O)N1CC=C(c2cnc(N)c(-c3nnc(-c4ccccc4)o3)n2)CC1 [Compound I-238, ethyl 4-(5-amino-6-(5-phenyl-1,3,4-oxadiazol-2-yl)pyrazin-2-yl)-5,6-dihydropyridine-1(2H)-carboxylate] | < 100 nM
9 | Nc1ncc(N2CCN(C(=O)N3CCCC3)CC2)nc1C(=O)Nc1ccccn1 [Compound I-239, 3-amino-N-(pyridin-2-yl)-6-(4-(pyrrolidine-1-carbonyl)piperazin-1-yl)pyrazine-2-carboxamide] | 1000 to 10000 nM
10 | CCCS(=O)(=O)N1CCN(c2cnc(N)c(C(=O)Nc3ccccn3)n2)CC1 [Compound I-240, 3-amino-6-(4-(propylsulfonyl)piperazin-1-yl)-N-(pyridin-2-yl)pyrazine-2-carboxamide] | 100 to 1000 nM
11 | Nc1ncc(C2=CCN(S(=O)(=O)c3cccnc3)CC2)nc1-c1nc2ccccc2[nH]1 [Compound I-241, 3-(1H-benzo[d]imidazol-2-yl)-5-(1-(pyridin-3-ylsulfonyl)-1,2,3,6-tetrahydropyridin-4-yl)pyrazin-2-amine] | < 100 nM
12 | COC(=O)N1CCN(c2cnc(N)c(C(=O)Nc3ccccn3)n2)CC1 [Compound I-242, methyl 4-(5-amino-6-(pyridin-2-ylcarbamoyl)pyrazin-2-yl)piperazine-1-carboxylate] | 1000 to 10000 nM
13 | COCCOC(=O)N1CC=C(c2cnc(N)c(-c3nc4ccccc4[nH]3)n2)CC1 [Compound I-243, 2-methoxyethyl 4-(5-amino-6-(1H-benzo[d]imidazol-2-yl)pyrazin-2-yl)-5,6-dihydropyridine-1(2H)-carboxylate] | 100 to 1000 nM
14 | COC(=O)N1CC=C(c2cnc(N)c(-c3nc4ccccc4[nH]3)n2)CC1 [Compound I-244, methyl 4-(5-amino-6-(1H-benzo[d]imidazol-2-yl)pyrazin-2-yl)-5,6-dihydropyridine-1(2H)-carboxylate] | 100 to 1000 nM
15 | Nc1ncc(C2=CCN(S(=O)(=O)c3cccs3)CC2)nc1-c1nnc(-c2ccccc2)o1 [Compound I-245, 3-(5-phenyl-1,3,4-oxadiazol-2-yl)-5-(1-(thiophen-2-ylsulfonyl)-1,2,3,6-tetrahydropyridin-4-yl)pyrazin-2-amine] | < 100 nM
16 | CC#CCOC(=O)N1CCN(c2cnc(N)c(-c3nnc(-c4ccccc4)o3)n2)CC1 [Compound I-246, but-2-ynyl 4-(5-amino-6-(5-phenyl-1,3,4-oxadiazol-2-yl)pyrazin-2-yl)piperazine-1-carboxylate] | 100 to 1000 nM
17 | Nc1ncc(N2CCN(C(=O)N3CCCCC3)CC2)nc1C(=O)Nc1ccccn1 [Compound I-247, 3-amino-6-(4-(piperidine-1-carbonyl)piperazin-1-yl)-N-(pyridin-2-yl)pyrazine-2-carboxamide] | 1000 to 10000 nM
18 | Nc1ncc(N2CCN(S(=O)(=O)C3CCCC3)CC2)nc1C(=O)Nc1ccccn1 [Compound I-248, 3-amino-6-(4-(cyclopentylsulfonyl)piperazin-1-yl)-N-(pyridin-2-yl)pyrazine-2-carboxamide] | 100 to 1000 nM

Row | SMILES | Ki
19 | Nc1ncc(C2=CCN(C(=O)N3CCCCC3)CC2)nc1-c1nc2ccccc2[nH]1 [Compound I-249, (4-(5-amino-6-(1H-benzo[d]imidazol-2-yl)pyrazin-2-yl)-5,6-dihydropyridin-1(2H)-yl)(piperidin-1-yl)methanone] | 100 to 1000 nM
20 | CCOC(=O)N1CC=C(c2cnc(N)c(-c3nc4ccccc4[nH]3)n2)CC1 [Compound I-250, ethyl 4-(5-amino-6-(1H-benzo[d]imidazol-2-yl)pyrazin-2-yl)-5,6-dihydropyridine-1(2H)-carboxylate] | 100 to 1000 nM
21 | Nc1ncc(N2CCN(C(=O)C3CCCCC3)CC2)nc1-c1nnc(-c2ccccc2)o1 [Compound I-251, (4-(5-amino-6-(5-phenyl-1,3,4-oxadiazol-2-yl)pyrazin-2-yl)piperazin-1-yl)(cyclohexyl)methanone] | 100 to 1000 nM
22 | CC#CCOC(=O)N1CCN(c2cnc(N)c(C(=O)Nc3ccccn3)n2)CC1 [Compound I-252, but-2-ynyl 4-(5-amino-6-(pyridin-2-ylcarbamoyl)pyrazin-2-yl)piperazine-1-carboxylate] | 1000 to 10000 nM
23 | Nc1ncc(N2CCN(S(=O)(=O)Cc3ccccc3)CC2)nc1C(=O)Nc1ccccn1 [Compound I-253, 3-amino-6-(4-(benzylsulfonyl)piperazin-1-yl)-N-(pyridin-2-yl)pyrazine-2-carboxamide] | 100 to 1000 nM
24 | CC#CCOC(=O)N1CC=C(c2cnc(N)c(-c3nc4ccccc4[nH]3)n2)CC1 [Compound I-254, but-2-ynyl 4-(5-amino-6-(1H-benzo[d]imidazol-2-yl)pyrazin-2-yl)-5,6-dihydropyridine-1(2H)-carboxylate] | 100 to 1000 nM
25 | Nc1ncc(N2CCN(C(=O)OCc3ccccc3)CC2)nc1-c1nnc(-c2ccccc2)o1 [Compound I-255, benzyl 4-(5-amino-6-(5-phenyl-1,3,4-oxadiazol-2-yl)pyrazin-2-yl)piperazine-1-carboxylate] | 1000 to 10000 nM
26 | Nc1ncc(N2CCN(C(=O)C3CCCCC3)CC2)nc1C(=O)Nc1ccccn1 [Compound I-256, 3-amino-6-(4-(cyclohexanecarbonyl)piperazin-1-yl)-N-(pyridin-2-yl)pyrazine-2-carboxamide] | 100 to 1000 nM
27 | Nc1ncc(C2=CCN(C(=O)OCc3ccccc3)CC2)nc1-c1nnc(-c2ccccc2)o1 [Compound I-257, benzyl 4-(5-amino-6-(5-phenyl-1,3,4-oxadiazol-2-yl)pyrazin-2-yl)-5,6-dihydropyridine-1(2H)-carboxylate] | 100 to 1000 nM
28 | Cc1cccc(C)c1C(=O)N1CCN(c2cnc(N)c(-c3nnc(-c4ccccc4)o3)n2)CC1 [Compound I-258, (4-(5-amino-6-(5-phenyl-1,3,4-oxadiazol-2-yl)pyrazin-2-yl)piperazin-1-yl)(2,6-dimethylphenyl)methanone] | 100 to 1000 nM
29 | Nc1ncc(C2=CCN(C(=O)C3CCCCC3)CC2)nc1-c1nc2ccccc2[nH]1 [Compound I-259, (4-(5-amino-6-(1H-benzo[d]imidazol-2-yl)pyrazin-2-yl)-5,6-dihydropyridin-1(2H)-yl)(cyclohexyl)methanone] | < 100 nM
30 | Nc1ncc(N2CCN(C(=O)OCc3ccccc3)CC2)nc1C(=O)Nc1ccccn1 [Compound I-260, benzyl 4-(5-amino-6-(pyridin-2-ylcarbamoyl)pyrazin-2-yl)piperazine-1-carboxylate] | 1000 to 10000 nM
31 | Nc1ncc(C2=CCN(C(=O)OCc3ccccc3)CC2)nc1-c1nc2ccccc2[nH]1 [Compound I-261, benzyl 4-(5-amino-6-(1H-benzo[d]imidazol-2-yl)pyrazin-2-yl)-5,6-dihydropyridine-1(2H)-carboxylate] | 100 to 1000 nM
32 | Cc1cccc(C)c1C(=O)N1CCN(c2cnc(N)c(C(=O)Nc3ccccn3)n2)CC1 [Compound I-262, 3-amino-6-(4-(2,6-dimethylphenylcarbonyl)piperazin-1-yl)-N-(pyridin-2-yl)pyrazine-2-carboxamide] | 100 to 1000 nM
33 | Cc1cccc(C)c1C(=O)N1CC=C(c2cnc(N)c(-c3nc4ccccc4[nH]3)n2)CC1 [Compound I-263, (4-(5-amino-6-(1H-benzo[d]imidazol-2-yl)pyrazin-2-yl)-5,6-dihydropyridin-1(2H)-yl)(2,6-dimethylphenyl)methanone] | < 100 nM
34 | COCCOCC(=O)N1CCN(c2cnc(N)c(-c3nc4ccccc4[nH]3)n2)CC1 [Compound I-264, 1-(4-(5-amino-6-(1H-benzo[d]imidazol-2-yl)pyrazin-2-yl)piperazin-1-yl)-2-(2-methoxyethoxy)ethanone] | 1000 to 10000 nM
35 | COCC(=O)N1CCN(c2cnc(N)c(-c3nc4ccccc4[nH]3)n2)CC1 [Compound I-265, 1-(4-(5-amino-6-(1H-benzo[d]imidazol-2-yl)pyrazin-2-yl)piperazin-1-yl)-2-methoxyethanone] | 1000 to 10000 nM
36 | COCCOC(=O)N1CCN(c2cnc(N)c(-c3nc4ccccc4[nH]3)n2)CC1 [Compound I-266, 2-methoxyethyl 4-(5-amino-6-(1H-benzo[d]imidazol-2-yl)pyrazin-2-yl)piperazine-1-carboxylate] | 1000 to 10000 nM
